In US20250243219A1, “MACROCYCLIC COMPOUNDS AND USES THEREOF” (Cypralis Limited, priority 2022, published 2025):
pKi: −log10 of the molar value. Read-outs that look alike come from different tables or passages of the source.

Tests used:
[1] = system: animal models of acute pancreatitis; details: Mukherjee et al., Gut Online, 12 Jun. 2015; cited from earlier work
[2] = system: kainic acid treated NMRI mice; experiment: Kainic acid model of epilepsy; format: in vivo, Male NMRI mice; details: 150 mg/kg for 3 consecutive days, kainic acid 45 mg/kg s.c., n=21
Description: Male NMRI mice (n=21) were given 150 mg/kg of Compound (2) (60% PEG400/water solution) for 3 consecutive days. 2 hours after the last dose the animals were given subcutaneously 45 mg/kg of kainic acid. Behaviour was monitored for 3 hours. On day 7 after receiving kainic acid the animals were sacrificed and brain analysed by immunohistochemistry for markers of neurodegeneration.

SH-SY5Y cells = experiment: Thapsigargin treated cell death assay in SH-SY5Y cells; format: cell-based, human; details: compound at 10 μM; positive = protection from cell death, negative = compound toxicity
How it was run: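 SH-SY5Y neuroblastoma cells given compound (typically 1, 3 and 10 μM, triplicate) 30 min before thapsigargin, with cyclosporin A (3 and 10 μM) as positive control. Cell death read kinetically over 24 h by CellTox Green DNA-binding fluorescence; values are % recovery at 10 μM, usually at 8 h, positive meaning protection.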

[3] = Pharmacokinetics in mice, subcutaneous administration; format: in vivo, mice (strain FVB/N); details: subcutaneous 10 mg/kg; for Tmax / Cmax / half-life: sc
Description: Test compounds were administered to rodents (mice or rats) either orally, subcutaneously or intravenously. To determine blood or plasma concentrations blood samples were taken at different time points and analysed for the concentration of test compound by LC/MS. Brain concentrations were measured by sacrificing animals and LC/MS analysis of brain homogenate. FIG. 3 illustrates graphs for the concentration (ng/ml) Compound (2) in blood, blood plasma and in the brain at 30 minutes to 7 hours after the same dosage administered sub-cutaneously.

pancreatic acinar cells = experiment: Protection of pancreatic acinar cells against TLCS toxicity (propidium iodide uptake, FIG. 1); format: cell-based; details: propidium iodide uptake as measure of necrotic cells
Text: FIG. 1 propidium iodide (PI) up-take as a measure of the number of dead pancreatic acinar cells (through necrosis) as a percentage against a number of treatments with Compound (2) and cyclosporin A and controls in an in-vitro model based on pancreatic acinar cells against the toxicity of the bile acid taurolithocholic acid-3-sulphate (TLCS);
WO 2021/115299 (Zuo) discloses compounds that protect against acute kidney injury caused by many different causes. The same compounds are disclosed in U.S. Pat. No. 6,583,265 (C-Chem AG) as cyclophilin inhibitors. There is no enzyme inhibiting, receptor binding or ion channel activity known for these compounds other than inhibition of cyclophilins. It can therefore be concluded that the compounds of the present invention, which are potent cyclophilin inhibitors but have no activity on other enzymes or receptors, have the same spectrum of properties.
FIG. 1 illustrates two sets of results.

cyclophilin D = cyclophilin D (Homo sapiens (Human), UniProt P30405); experiment: Functional peptidyl prolyl isomerase (PPIase) spectrophotometric assay, cyclophilin D; format: biochemical; details: second value of CypA/D cell; read-out: Ki CypD
Chain of cyclophilin D (P30405 30-207, species assumed): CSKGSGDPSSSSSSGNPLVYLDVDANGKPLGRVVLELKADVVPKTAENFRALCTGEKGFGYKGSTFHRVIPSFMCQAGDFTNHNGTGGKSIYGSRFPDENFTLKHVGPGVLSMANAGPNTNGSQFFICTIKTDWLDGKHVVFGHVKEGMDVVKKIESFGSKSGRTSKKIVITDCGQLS
How it was run: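 Cuvette-based UV/Vis assay of PPIase-catalysed cis-to-trans isomerisation of a peptide substrate. First-order rate constants fitted to absorbance, background rate subtracted. Ki derived from rate constant versus inhibitor concentration, typically 6-point curves in duplicate.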

[4] = system: permeabilised HepG2 cells; experiment: Calcium retention capacity (CRC) assay in permeabilised HepG2 cells (MPTP opening); format: cell-based, human; design: CRC [10 μM]: unit not given here; details: compound at 10 μM
How it was run: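 Digitonin-permeabilised HepG2 cells received trains of calcium pulses (typically 5 μM) monitored with Calcium Green-5N until buffering failed, marking permeability transition. Runs with and without compound; calcium retained at 10 μM compound expressed as ratio versus cyclosporin A positive control.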

For CC(C)[C@@H]1OC(=O)C(C)(C)/C=C/c2ccc3ccc(nc3c2)N(C)NC(=O)[C@@H]2CCCN(N2)C(=O)[C@H](C)NC1=O [Compound (2)], the “Protection in animal models of acute pancreatitis” value [1] is given as “protective”, the “Number of animals with visible signs of neurodegeneration” value ([2]; control group 5 animals) is given as 2 animals and the “Percent of animals with visible signs of neurodegeneration” value ([2]; control group 24%) is given as 9%. The “SYSY [10 μM] % recovery” value (SH-SY5Y cells) was 40.4%, the Kp ([3]; FVB/N, mouse, brain and blood) was 0.9 and the Tmax ([3]; FVB/N, mouse, brain, read-out: Tmax Brain) was 2 h. For the same compound, the Cmax ([3]; FVB/N, mouse, plasma, read-out: Cmax Plasma) was 1640 ng/mL, the half-life ([3]; FVB/N, mouse, plasma, read-out: T1/2 Plasma (converted)) was 1.77 h and the Tmax ([3]; FVB/N, mouse, plasma, read-out: Tmax Plasma) was 0.5 h. The Cmax ([3]; FVB/N, mouse, whole blood, read-out: Cmax Whole blood) was 2640 ng/mL, the half-life ([3]; FVB/N, mouse, whole blood, read-out: T1/2 Whole blood (converted)) was 3.17 h and the Tmax ([3]; FVB/N, mouse, whole blood, read-out: Tmax Whole blood) was 0.5 h. For the same compound, the “AUC0-t Brain” value [3] was 3370 ng/mL/h, the “AUC0-t Plasma” value [3] was 3730 ng/mL/h and the “AUC0-t Whole blood” value [3] was 8150 ng/mL/h. The Blood/plasma [3] was 2.2 Ratio, the “Cmax Brain” value [3] was 563 ng/mL and the “Protection of pancreatic acinar cells against toxicity of TLCS” value (pancreatic acinar cells) was “protect pancreatic acinar cells against the toxicity”. For the same compound, the pKi (cyclophilin D) was 7.77, the “CRC [10 μM]” value ([4]; digitonin permeabilised HepG2 cells) was 26 and the “CRC [10 μM] (ratio vs CsA)” value ([4]; normalised to cyclosporin A, value in brackets) was 0.9875.
